We go through three compounds from patent publication US8212010B2, “Sphingosine 1-phosphate antagonism” (Expression Drug Designs, LLC, priority 2008, dated 2012).

One test deals with MCF-7 cells. As to the kind of experiment: Cell death by annexin V assay. The class given is cell-based, human. How it is done: Quantification of cell death can be performed with an annexin V assay. Serum-starved cells can be treated overnight with […] tamoxifen in the presence or absence of 500 nM S1P, then collected by trypsinization, and labeled with Alexafluor 488-conjugated annexin V (Invitrogen Corp, Carlsbad, Calif.) per manufacturer's protocol. Cells can be counted on a FACSAria cell sorting system and analyzed with FACSDiva software (BD Biosciences, San Jose, Calif.). […] This effect is attenuated by co-administration of 500 nM S1P.

Test [1] has as its system MDA-MB-231 breast cancer cells. The test is described as follows: S1P-induced cytoskeletal rearrangement / cell rounding. The test is classed as cell-based, human. How it is done:
MDA-MB-231 breast cancer cells are cultured on collagen-coated coverslips in the presence of 10% FBS using standard techniques. Because S1P is present at high concentrations in serum, BCCs are “serum-starved” in Dulbecco's modified Eagle medium (DMEM) for 12 hours prior to experimental manipulation. S1P is solubilized with bovine serum albumin (BSA) carrier and administered at a final concentration of 1 nM to 1 μM. Coverslips are collected at representative time points such as 10 minutes, 1 hr., 2 hrs., 4 hrs., and 6 hrs., fixed with 4% paraformaldehyde, and stained with rhodamine-conjugated phalloidin to label cytoskeletal actin.
The cell rounding experiment can be performed using an antagonist of S1P that binds to S1P3. […] Serum-starved MDA-MB-231 cells are incubated with preimmune serum or S1P3-reactive antiserum for 15 minutes prior to a 30-minute exposure to 10 nM S1P, then evaluated for response both in % cells responding and average cell area.
MDA-MB-231 cells are grown under standard culture conditions and serum starved for 24 hours prior to experimental manipulation. […] 30 minutes after S1P administration, cells are fixed with 4% paraformaldehyde, stained with rhodamine-conjugated phalloidin, and visualized with fluorescence microscopy. Rounded cells are counted by an experimenter blinded to the identity of the sample. Cell area is determined by quantification with imageJ software.

Test [2] relates to MDA-MB-231 cells. As to the kind of experiment: Tamoxifen toxicity, cell viability by phase contrast microscopy. The class given is cell-based, human. How it is done:
The experiment can be performed first without a S1P antagonist. MDA-MB-231 cells are cultured under standard conditions in […] supplemented with 10% fetal bovine serum and glutamate. Cells are grown in the absence of serum for 24 hours prior to experimental manipulation. Tamoxifen (Tam) and S1P are added to the media at the indicated concentrations for the indicated times at the appropriate concentrations (e.g., 3 μM Tam, 10 μM Tam, and 20 μM Tam) for appropriate times (e.g., 6 hrs. and 24 hrs.). Cell viability is observed by direct illumination with an inverted phase contrast microscope.
The tamoxifen toxicity experiment can be performed using an antagonist of S1P that binds to S1P3. For example, the antiserum described in Example 1 can be employed. MDA-MB-231 cells are cultured under standard conditions in Dulbecco's Minimal Essential Media supplemented with 10% fetal bovine serum and glutamate. Serum concentration is reduced to 1% for 24 hours prior to experimental manipulation. Tamoxifen and S1P are added to the media at the appropriate concentrations (e.g., 0 μM Tam, 10 μM Tam, and 20 μM Tam) for appropriate times (e.g., 6 hrs. and 24 hrs.). Cell viability is observed by direct illumination with an inverted phase contrast microscope.

Test [3] has as its system MDA-MB-231 cells. The test is described as follows: Cell motility, modified Boyden's chamber assay. The class given is cell-based, human. The conditions noted are these: 1 μM S1P; two hour time point. As for the experimental part: Cell motility is determined using a modified Boyden's chamber assay. MDA-MB-231 cells are introduced into the upper wells of collagen-coated chambers in serum-free DMEM and incubated for 30 minutes before the addition of either 1 μM S1P in BSA or BSA alone. At the indicated times, wells are isolated and fixed with 4% paraformaldehyde before non-migrated cells in the upper well are removed with a cotton swab. Membranes are then stained with DAPI to visualize individual migrated cells on the bottom of the membranes. Results shown are the averages of three independent experiments. Determination of the effect of S1P3 blocking antibodies on the migration of cancer cells can be performed as follows. The effect of S1P3 blocking antibodies is determined using a modified Boyden chamber assay as described above. In this case, an appropriate cell line (such as […]) is seeded into the upper chamber of the transwell and pre-treated with a blocking antibody or control antibody. […] Cells are then fixed and counted as described above. The anti-migratory effect of the blocking antibody is determined by comparing the number of migrated cells in the presence of the antibody to the number of migrated cells in the presence of an appropriate control antibody under the same stimulatory conditions.

A further test has as its system S1P receptor. The conditions noted are these: with the exception of S1P2; by stable internalization; cited from earlier work.
Another test has as its system tumor transplant model. The conditions noted are these: in vivo; cited from earlier work.

For the compound `CCCCCCCCCCCCC/C=C/[C@@H](O)[C@@H](N)COP(=O)(O)O` [S1P, Sphingosine 1-phosphate], in the test on MCF-7 cells (co-administration of 500 nM S1P), the “effect on tamoxifen-induced annexin V binding” value is “attenuated”. For the same compound, the cell shape change result in test [1] (1 nM S1P) is given as “minor cell shape changes”; in test [1] (10 nM S1P) it was “dramatic cell rounding”. In addition, the “cell viability under tamoxifen with S1P” value is on record as “many viable cells remain” in the test with MDA-MB-231 cells [2] (serum-free, 6 hours, media supplemented with 1 μM S1P) and “markedly improves survival” in the test on MDA-MB-231 cells [2] (serum-free, 24 hour, addition of S1P). Further, the “increase in migrated cells compared to vehicle control” value with MDA-MB-231 cells [3] is recorded as “nearly two-fold increase”.
For `CCCCCCCCc1ccc(CCC(N)(CO)CO)cc1` [FTY720], the “inhibition of S1P receptors” value in the test with S1P receptor is listed as “effectively inhibit four of the five known receptors”. Moreover, the “effect on angiogenesis and tumor growth” value in the test with tumor transplant model was “inhibit angiogenesis and subsequent growth”.
For `CC/C(=C(\c1ccccc1)c1ccc(OCCN(C)C)cc1)c1ccccc1` [Tamoxifen], the “annexin V binding (apoptotic cell death)” value with MCF-7 cells (overnight treatment of MCF-7 cells) is on record as “increase in annexin V binding”. Besides, the cell viability entry in the test with MDA-MB-231 cells [2] (1% FBS, 6 hours, 10 μM Tam) is listed as “appear normal”; in the test with MDA-MB-231 cells [2] (1% FBS, 6 hours, 20 μM Tam), “begin to show evidence of cell death”; in the test on MDA-MB-231 cells [2] (24 hours, 10 μM Tam, control conditions), “most cells remain healthy”; in the test on MDA-MB-231 cells [2] (serum-free, 6 hours, 10 μM tamoxifen), “only a few viable cells remain”; in the test on MDA-MB-231 cells [2] (serum-free, 6 hours, 20 μM tamoxifen) it was “all cells are dead/dying”; in the test on MDA-MB-231 cells [2] (serum-free, 24 hour, 3 μM tamoxifen), “most control cells are lost”. For the same compound, the cell viability result in the test on MDA-MB-231 cells [2] (serum-free, 24 hour, 10 μM tamoxifen) was “cell death is complete”.
